Patent publication US12215082B1 (priority 2023, dated 2025)

The compounds below were run on Mycobacterium tuberculosis H37Rv (susceptible) (assay: Resazurin Microplate Assay (REMA), anti-tubercular activity, H37Rv strain). Details: 192 h, read-out: MIC Susceptible (H37Rv).
Format: cell-based

Question: `O=C(C[n+]1ccc(/C=N/O)cc1)c1ccc(Br)cc1.[Br-]` [Compound 3b, (E)-1-(2-(4-Bromophenyl)-2-oxoethyl)-4-((hydroxyimino)methyl)pyridin-1-ium bromide] was tested. Which MIC did it give?
Answer: 32 µg/mL

Question: With `O=C(C[n+]1ccc(/C=N/O)cc1)c1ccc(F)cc1.[Br-]` [Compound 3c, (E)-1-(2-(4-Fluorophenyl)-2-oxoethyl)-4-((hydroxyimino)methyl)pyridin-1-ium bromide] as the compound, how does the MIC read?
Answer: 32 µg/mL

Question: For `O=C(C[n+]1ccc(/C=N/O)cc1)c1ccccc1[N+](=O)[O-].[Br-]` [Compound 3e, (E)-4-((Hydroxyimino)methyl)-1-(2-(2-nitrophenyl)-2-oxoethyl)pyridin-1-ium bromide], which MIC is on record?
Answer: 64 µg/mL

Question: `O=C(C[n+]1ccc(/C=N/O)cc1)c1ccccc1.[Br-]` [Compound 3a, (E)-4-((Hydroxyimino)methyl)-1-(2-oxo-2-phenylethyl)pyridin-1-ium bromide] was tested. Which MIC did it give?
Answer: 32 µg/mL

Question: Which MIC does the source give for `N#Cc1ccc(C(=O)C[n+]2ccc(/C=N/O)cc2)cc1.[Br-]` [Compound 3d, (E)-1-(2-(4-Cyanophenyl)-2-oxoethyl)-4-((hydroxyimino)methyl)pyridin-1-ium bromide] here?
Answer: 16 µg/mL
